In PMC5320518, “Novel Liver-targeted conjugates of Glycogen Phosphorylase Inhibitor PSN-357 for the Treatment of Diabetes: Design, Synthesis, Pharmacokinetic and Pharmacological Evaluations” (Scientific Reports, 2017):
Read-outs that look alike come from different tables or passages of the source.

Tests used:
[1] = target: T1, rabbit muscle GPa (RMGPa) (Oryctolagus cuniculus, UniProt P00489); assay: RMGPa inhibition assay (phosphate release from glucose-1-phosphate); type: biochemical; conditions: mean ± S.D. of three determinations; NI means no inhibition
T1 sequence (P00489 2-843 limits assumed): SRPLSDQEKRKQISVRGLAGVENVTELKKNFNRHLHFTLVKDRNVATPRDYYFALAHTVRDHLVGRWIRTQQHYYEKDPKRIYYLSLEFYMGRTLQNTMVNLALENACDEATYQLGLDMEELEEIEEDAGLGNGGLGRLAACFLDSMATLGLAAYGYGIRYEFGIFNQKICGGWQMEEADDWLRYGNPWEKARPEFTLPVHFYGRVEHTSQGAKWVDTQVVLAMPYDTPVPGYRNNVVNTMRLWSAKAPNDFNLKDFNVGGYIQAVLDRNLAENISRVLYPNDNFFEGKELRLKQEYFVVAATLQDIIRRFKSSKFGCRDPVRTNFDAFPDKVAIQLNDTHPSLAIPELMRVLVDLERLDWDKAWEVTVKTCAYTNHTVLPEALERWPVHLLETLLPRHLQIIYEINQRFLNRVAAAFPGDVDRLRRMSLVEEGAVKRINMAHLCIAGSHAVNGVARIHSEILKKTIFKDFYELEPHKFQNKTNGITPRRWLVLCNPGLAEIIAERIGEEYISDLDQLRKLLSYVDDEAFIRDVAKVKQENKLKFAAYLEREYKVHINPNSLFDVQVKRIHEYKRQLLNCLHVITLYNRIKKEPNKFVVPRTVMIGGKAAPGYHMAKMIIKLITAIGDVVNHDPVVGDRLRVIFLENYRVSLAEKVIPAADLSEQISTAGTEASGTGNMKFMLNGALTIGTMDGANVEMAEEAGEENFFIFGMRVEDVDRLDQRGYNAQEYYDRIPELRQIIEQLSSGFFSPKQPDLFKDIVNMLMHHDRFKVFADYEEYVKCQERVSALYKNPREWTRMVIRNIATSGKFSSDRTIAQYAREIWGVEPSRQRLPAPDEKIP

[2] = Stability in mouse plasma; type: in vitro ADME; conditions: 2 μM, 37 °C, 120-min test
Procedure: Frozen plasma from male C57 BL/6 mice was incubated for 5 min at 37 °C before the addition of the test compound. Then prepared 2 μM incubation sample, and aliquots of the incubation mixtures (100 μL) were taken at predetermined time points (10, 30, 60, 120 min) at 37 °C. After incubation, the mixtures was added 400 μL of 50% ACN/50% MeOH containing internal standard (IS, 200 ng/mL Tolbutamide and 20 ng/mL Buspirone) to each sample tube and then centrifuged at 13000 rpm for 8 min. Blank incubations in the absence of the test compound were also performed. The analyses of test compounds were performed by LC-MS/MS analysis.

[3] = Biodistribution and pharmacokinetics in plasma and liver after intravenous administration in mice; type: in vivo; conditions: 5 mg/kg intravenous; for AUC(0-t) / Cmax: iv
Procedure: Based on the results of the potency and in vitro stability studies, conjugate 6 was selected for in vivo pharmacokinetic analysis following a single intravenous injection of 5 mg/kg in male C57 BL/6. Doses of PSN-357 intravenous were used as standard regimens for comparison.
Male C57 BL/6 mice (18–20 g, 5–6 weeks old) were provided by the Laboratory Animal Center of Academy of Military Medical Science of People’s Liberation Army, and were reared in standard rodent cages in animal house of Chengde Medical University, under the condition of a constant temperature of 24 °C (±2 °C) and a 12 h light/dark cycle. PSN-357 and conjugate 6 were injected through the caudal vein. For each sampling time point, three mice were treated with a single dose of either PSN-357 or conjugate 6 at 5 mg/kg in 10% DMSO/saline solutions. Blood and liver samples were taken at 0.0833, 0.25, 0.5, 1, 2, 4, 6 and 24 h following intravenous administration, and stored at −80 °C until analysis. Aliquots of all biological matrixes were deproteinized with a mixture of methanol/acetonitrile (1:1). The suspension was vortexed, mixed, and centrifuged at 13000 rpm for 10 min. The organic phase was injected into the LC-MS/MS system. PK calculations and statistical comparisons on PK data were performed according to a non-compartmental kinetic model with validated software (Kinetica™ version 5.1, Thermo Electron Corporation, USA).

[4] = male, C57 BL/6, mouse, liver tissue, read-out: MRT0-t, liver
[5] = male, C57 BL/6, mouse, liver, 5 mg/kg, liver tissue, read-out: AUC0-t, liver
[6] = male, C57 BL/6, mouse, plasma, read-out: MRT0-t, plasma
[7] = male, C57 BL/6, mouse, plasma, 5 mg/kg
[8] = male, C57 BL/6, mouse, plasma, 5 mg/kg, plasma, read-out: AUC0-t, plasma

Row | Structure (SMILES) | IC50 [1] [µM] | degradation in mouse plasma [2] [%] | Cmax, liver ([3]; liver tissue) [ng/mL] | MRT last [3, 4] [h] | AUC(0-t) [3, 5] [ng·h/mL] | MRT last [3, 6] [h] | concentration at 240 min ([3]; male, C57 BL/6, mouse, plasma, 240 min, read-out: plasma concentration at 240 min after dosing) [ng/mL] | Cmax [3, 7] [ng/mL] | AUC(0-t) [3, 8] [ng·h/mL] | Cmax, plasma ([3]; plasma, 5 mg/kg) [ng/mL] | stability in mouse plasma (in words) [2] | AUC0-t, liver ([3]; liver tissue, 5 mg/kg) [ng·h/mL] | Kp ([3]; male, C57 BL/6, mouse, liver and plasma, read-out: AUCliver/AUCplasma ratio) | AUC0-t, plasma ([3]; plasma, 5 mg/kg) [ng·h/mL] | time of secondary peak in plasma ([3]; plasma, perhaps due to enterohepatic circulation) [min]
1 | C[C@H](CCC(=O)N[C@@H](CC(=O)O)C(=O)OC1CCN(C(=O)[C@H](Cc2ccc(F)cc2)NC(=O)c2cc3cc(Cl)ncc3[nH]2)CC1)[C@H]1CC[C@H]2[C@@H]3[C@H](O)C[C@@H]4C[C@H](O)CC[C@]4(C)[C@H]3C[C@H](O)[C@]12C [Conjugate 6] | 31.2 ± 11.1 | ~12 | 3094.55 | 4.42 | 3980 | 7.52 | 97 | 726 | 1520 | 726.2 |  |  |  |  | 
2 | O=C(N[C@@H](Cc1ccc(F)cc1)C(=O)N1CCC(O)CC1)c1cc2cc(Cl)ncc2[nH]1 [PSN-357] | 0.42 ± 0.01 |  | 6677.85 | 4.52 | 9710 | 3.18 |  | 628 | 965 | 628.35 | relatively stable | 9711.94 | 10.1 | 965.16 | 60
